The source of these data is US7902175B2, “Aminopropanol derivatives” (Novartis AG, priority 2003, dated 2011).

For orientation: EC50 means the concentration that produces a half-maximal response. Low values mean a more potent agent, high ones a less potent agent.

One data set has as its target T1, S1P-4 (Homo sapiens, UniProt O95977).
T1 construct: expressed in transfected cells; host or cells: HEK293 (transient, calcium phosphate); crude membranes
T1 sequence (O95977 1-384): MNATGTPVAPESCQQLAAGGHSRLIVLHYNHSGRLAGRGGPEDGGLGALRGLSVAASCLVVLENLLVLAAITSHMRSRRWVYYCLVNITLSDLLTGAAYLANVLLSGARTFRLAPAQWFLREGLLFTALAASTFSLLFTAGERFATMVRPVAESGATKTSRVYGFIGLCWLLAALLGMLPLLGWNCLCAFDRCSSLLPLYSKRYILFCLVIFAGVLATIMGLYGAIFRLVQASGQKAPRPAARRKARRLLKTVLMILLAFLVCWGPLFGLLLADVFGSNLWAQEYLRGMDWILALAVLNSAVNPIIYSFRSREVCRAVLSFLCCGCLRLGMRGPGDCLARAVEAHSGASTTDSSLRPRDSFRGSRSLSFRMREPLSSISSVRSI
In words: GTPγS binding assay using S1P receptor/HEK293 membrane preparations. The class given is biochemical. The note with it: for EC50: GTPγS binding, transiently transfected HEK293 membranes. From the text: (§1) The compounds of the invention have binding affinity to individual human S1P receptors as determined in following assays:
(§2) Transient Transfection of Human S1P Receptors into HEK293 Cells
(§3) S1P receptors and Gi proteins are cloned, and equal amounts of 4 cDNAs for the S1P receptor, Gi-α, Gi-β and Gi-γ are mixed and used to transfect monolayers of HEK293 cells using the calcium phosphate precipitate method (M. Wigler et al., Cell. 1977; 11; 223 and DS. Im et al., Mol. Pharmacol. 2000; 57; 753). Briefly, a DNA mixture containing 25 μg of DNA and 0.25 M CaCl is added to HEPES-buffered 2 mM Na2HPO4. Subconfluent monolayers of HEK293 cells are poisoned with 25 […], and the DNA precipitate is then applied to the cells. After 4 h, the monolayers are washed with phosphate-buffered saline and refed media (90% 1:1 Dulbecco's modified essential media (DMEM):F-12+10% fetal bovine serum). The cells are harvested 48-72 h after addition of the DNA by scraping in HME buffer (in mM: 20 HEPES, 5 MgCl2, 1 EDTA, pH 7.4) containing 10% sucrose on ice, and disrupted using a Dounce homogenizer. After centrifugation at 800×g, the supernatant is diluted with HME without sucrose and centrifuged at 100,000×g for 1 h. The resulting pellet is rehomogenized and centrifuged a second hour at 100,000×g. This crude membrane pellet is resuspended in HME with sucrose, aliquoted, and snap-frozen by immersion in liquid nitrogen. The membranes are stored at […] Protein concentration is determined spectroscopically by Bradford protein assay.
(§4) GTPγS Binding Assay Using S1P Receptor/HEK293 Membrane Preparations
(§5) GTPγS binding experiments are performed as described by D S. Im et al., Mol. Pharmacol. 2000; 57:753. Ligand-mediated GTPγS binding to G-proteins is measured in GTP binding buffer (in mM: 50 HEPES, 100 NaCl, 10 MgCl2, pH 7.5) using 25 μg of a membrane preparation from transiently transfected HEK293 cells. Ligand is added to membranes in the presence of 10 μM GDP and 0.1 nM [^35S]GTPγS (1200 Ci/mmol) and incubated at 30° C. for 30 min. Bound GTPγS is separated from unbound using the Brandel harvester (Gaithersburg, Md.) and counted with a liquid scintillation counter.
A general note: Binding of GTPγS marks nucleotide exchange on a G protein.

Another data set has as its system human S1P receptors. As to the kind of experiment: GTPγS binding assay, S1P receptors in general. The class given is biochemical.
From the text: as §1, §2
S1P receptors and Gi proteins are cloned, and equal amounts of 4 cDNAs for the S1P receptor, Gi-α, Gi-β and Gi-γ are mixed and used to transfect monolayers of HEK293 cells using the calcium phosphate precipitate method (M. Wigler et al., Cell. 1977; 11; 223 and DS. Im et al., Mol. Pharmacol. 2000; 57; 753). Briefly, a DNA mixture containing 25 μg of DNA and 0.25 M CaCl is added to HEPES-buffered 2 mM Na2HPO4. Subconfluent monolayers of HEK293 cells are poisoned with 25 […], and the DNA precipitate is then applied to the cells. […] Protein concentration is determined spectroscopically by Bradford protein assay. […]
GTPγS binding experiments are performed as described by D S. Im et al., Mol. Pharmacol. 2000; 57:753. Ligand-mediated GTPγS binding to G-proteins is measured in GTP binding buffer (in mM: 50 HEPES, 100 NaCl, 10 MgCl2, pH 7.5) using 25 μg of a membrane preparation from transiently transfected HEK293 cells. […] Bound GTPγS is separated from unbound using the Brandel harvester (Gaithersburg, Md.) and counted with a liquid scintillation counter.

The target in the next data set is T2, S1P-3 (Homo sapiens, UniProt Q99500).
T2 construct: expressed in transfected cells; host or cells: HEK293 (transient, calcium phosphate); crude membranes
In words: GTPγS binding assay using S1P receptor/HEK293 membrane preparations. The class given is biochemical. As to the method:
as §2, §3, §4, §5

The target in a further data set is T3, S1P-1 (Homo sapiens, UniProt P21453).
T3 construct: expressed in transfected cells; host or cells: HEK293 (transient, calcium phosphate); crude membranes
The data set is described as above. The data set is classed as biochemical. As to the method:
as §2
as §3, with “Briefly,” for “S1P receptors and Gi proteins are cloned, and equal amounts of 4 cDNAs for the S1P receptor, Gi-α, Gi-β and Gi-γ are mixed and used to transfect monolayers of HEK293 cells using the calcium phosphate precipitate method (M. Wigler et al., Cell. 1977; 11; 223 and DS. Im et al., Mol. Pharmacol. 2000; 57; 753). Briefly,”
as §4
(§6) Ligand-mediated GTPγS binding to G-proteins is measured in GTP binding buffer (in mM: 50 HEPES, 100 NaCl, 10 MgCl2, pH 7.5) using 25 μg of a membrane preparation from transiently transfected HEK293 cells. Ligand is added to membranes in the presence of 10 μM GDP and 0.1 nM [^35S]GTPγS (1200 Ci/mmol) and incubated at 30° C. for 30 min. Bound GTPγS is separated from unbound using the Brandel harvester (Gaithersburg, Md.) and counted with a liquid scintillation counter.

The target of the next data set is T4, S1P-5 (Homo sapiens, UniProt Q9H228).
T4 construct: expressed in transfected cells; host or cells: HEK293 (transient, calcium phosphate); crude membranes
The description is as above. The data set is classed as biochemical. As to the method:
as §2
as §3, with “Briefly,” for “S1P receptors and Gi proteins are cloned, and equal amounts of 4 cDNAs for the S1P receptor, Gi-α, Gi-β and Gi-γ are mixed and used to transfect monolayers of HEK293 cells using the calcium phosphate precipitate method (M. Wigler et al., Cell. 1977; 11; 223 and DS. Im et al., Mol. Pharmacol. 2000; 57; 753). Briefly,”
as §4, §6

The target of another data set is T5, S1P-2 (Homo sapiens, UniProt O95136).
T5 construct: expressed in transfected cells; host or cells: HEK293 (transient, calcium phosphate); crude membranes
The data set is described as above. The data set is classed as biochemical. The note with it: transiently transfected HEK293 membranes. The procedure:
as §2, §3, §4, §5

A short description of data set [1]: Chiral HPLC determination of FTY720-phosphate enantiomers in blood after dosing 14C-labeled FTY720. The note with it: rats, orally 7.5 mg/kg or intravenous infusion 4 mg/kg; blood e.g. 3 or 72 hours after dosing. The data set is classed as in vivo. From the text:
In a further aspect, the present invention provides a method of determining the amount of the R and/or S isomers of a compound of formula II present in a sample, comprising (a) reacting the compound of formula II present in the sample with benzene-1,2-dicarbaldehyde to form a compound of formula I, and separating the R and S isomers of the compound of formula I by HPLC. The HPLC is preferably performed as described above, using a chiral ion-exchange phase e.g. based on quinine carbamate or quinidine carbamate. The compounds of formula I are useful as intermediates in such a method. The sample may be e.g. a sample derived from a bodily fluid e.g. blood, plasma, saliva, or urine, and may be first subjected to one or more separation steps, (e.g. extraction with methanol and/or non-chiral HPLC) in order to separate the compound of formula II from the fluid. By such a method the amount of the active R or S enantiomer in the sample may be determined. […]
For example, achiral 14C-labeled FTY720 is administered to rats either orally (7.5 mg/kg) or by intravenous infusion (4 mg/kg). […] The derivative is spiked with unlabelled OPA-derivatized R and S FTY720-phosphate as retention time markers (monitored by UV at 215 nm) and subjected to chiral HPLC separation using a ProntoSIL Chiral AX QN-1 column.

Where [2] appears, read: GTPγS binding, transiently transfected HEK293 membranes.

T2 sequence (Q99500 whole entry): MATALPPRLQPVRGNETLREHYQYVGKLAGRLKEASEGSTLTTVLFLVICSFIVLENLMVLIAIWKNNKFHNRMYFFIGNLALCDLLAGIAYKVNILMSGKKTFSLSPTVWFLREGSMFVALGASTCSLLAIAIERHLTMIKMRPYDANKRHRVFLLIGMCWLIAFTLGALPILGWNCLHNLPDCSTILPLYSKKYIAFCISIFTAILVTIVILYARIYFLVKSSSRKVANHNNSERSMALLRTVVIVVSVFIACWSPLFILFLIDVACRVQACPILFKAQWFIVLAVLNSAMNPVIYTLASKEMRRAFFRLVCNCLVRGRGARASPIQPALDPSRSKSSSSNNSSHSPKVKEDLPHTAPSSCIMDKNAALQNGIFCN
T3 sequence (P21453 whole entry): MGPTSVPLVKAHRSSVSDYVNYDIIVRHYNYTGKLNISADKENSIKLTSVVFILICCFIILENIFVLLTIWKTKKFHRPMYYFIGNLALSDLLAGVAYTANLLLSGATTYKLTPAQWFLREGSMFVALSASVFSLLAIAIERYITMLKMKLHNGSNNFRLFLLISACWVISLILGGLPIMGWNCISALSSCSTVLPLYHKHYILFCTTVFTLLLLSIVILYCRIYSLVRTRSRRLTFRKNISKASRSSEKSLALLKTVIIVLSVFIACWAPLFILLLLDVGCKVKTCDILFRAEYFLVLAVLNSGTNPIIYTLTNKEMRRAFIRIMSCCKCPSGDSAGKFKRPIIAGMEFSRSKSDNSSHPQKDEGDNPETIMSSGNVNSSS
T4 sequence (Q9H228 whole entry): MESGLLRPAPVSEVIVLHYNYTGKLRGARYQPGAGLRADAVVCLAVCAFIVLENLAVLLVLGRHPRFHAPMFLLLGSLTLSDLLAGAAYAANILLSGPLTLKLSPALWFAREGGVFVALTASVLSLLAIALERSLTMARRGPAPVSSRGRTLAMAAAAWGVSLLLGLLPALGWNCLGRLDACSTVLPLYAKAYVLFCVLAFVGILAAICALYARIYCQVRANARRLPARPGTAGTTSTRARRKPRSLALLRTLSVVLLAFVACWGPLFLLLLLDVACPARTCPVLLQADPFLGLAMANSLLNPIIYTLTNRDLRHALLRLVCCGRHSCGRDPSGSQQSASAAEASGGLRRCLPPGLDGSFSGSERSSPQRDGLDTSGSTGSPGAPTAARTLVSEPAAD
T5 sequence (O95136 whole entry): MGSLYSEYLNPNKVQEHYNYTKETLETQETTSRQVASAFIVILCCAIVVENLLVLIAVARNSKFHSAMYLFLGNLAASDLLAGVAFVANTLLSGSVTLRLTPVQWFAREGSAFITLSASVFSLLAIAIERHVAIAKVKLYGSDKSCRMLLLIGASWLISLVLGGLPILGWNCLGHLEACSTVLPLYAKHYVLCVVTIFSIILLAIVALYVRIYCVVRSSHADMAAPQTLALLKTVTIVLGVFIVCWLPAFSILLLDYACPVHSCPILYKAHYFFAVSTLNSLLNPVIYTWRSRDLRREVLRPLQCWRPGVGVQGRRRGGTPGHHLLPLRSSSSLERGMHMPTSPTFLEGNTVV

As to `CCCCCCCCc1ccc(CCC(N)(CO)COP(=O)(O)O)cc1` (single isomer, unassigned) [(R)-FTY720-P, phosphoric acid mono-[2-amino-2-hydroxymethyl-4-(4-octyl-phenyl)-butyl]ester], the response at S1P-4 was half-maximal at 80.1 nM (EC50). Also, the “agonistic effects on S1P receptors” value in the data set on human S1P receptors is “only at very high concentrations”.
For the compound `CCCCCCCCc1ccc(CCC(N)(CO)COP(=O)(O)O)cc1` (single isomer, unassigned) [(S)-FTY720-P, phosphoric acid mono-[2-amino-2-hydroxymethyl-4-(4-octyl-phenyl)-butyl]ester], the EC50 on S1P-4 is 0.75 nM. On S1P-4 (in the low nanomolar range), the “agonist character on S1P4” value is “partial agonist”. For the same compound, the “agonist character on S1P3” value at S1P-3 (in the low nanomolar range) is recorded as “full agonist”. Moreover, the “agonist character on S1P1” value on S1P-1 (in the low nanomolar range) is recorded as “full agonist”. Further, the “agonist character on S1P5” value at S1P-5 (in the low nanomolar range) was “partial agonist”.
For `N[C@@](CO)(CCc1ccc(OCCc2ccc(C(F)(F)F)cc2)cc1)COP(=O)(O)O` [Ex. 14, Phosphoric Acid mono-((R)-2-amino-2-hydroxymethyl-4-{4-[2-(4-trifluoromethyl-phenyl)-ethoxy]-phenyl}-butyl)ester], the EC50 is 6.6 nM on S1P-4; 140 nM on S1P-3 (setting [2]); over 10000 nM at S1P-2; 0.4 nM on S1P-1 (setting [2]); 7.7 nM on S1P-5 (setting [2]).
`CCCCCCCCc1ccc(CCC(N)(CO)CO)cc1` [FTY720, 2-amino-2-[2-(4-octylphenyl)ethyl]propane-1,3-diol]: in data set [1], the “R-enantiomer of [14C]FTY720-phosphate in blood” value is “not detectable” and the “enantiomer of the metabolite [14C]FTY720-phosphate in all blood samples” value is reported as “exclusively the pharmacologically active S-enantiomer”.
